The source of these data is US20250367251A1, “SKELETON PROTECTION METHOD USING PEPTIDE” (Pell Bio-Med Technology Co., Ltd., priority 2024, published 2025).

Non-standard residues stand in square brackets, D forms with d. Residues, ends and D or L forms follow the SMILES beside them. pGlu = O=C1CC[C@@H](C(=O)O)N1

Series [1] concerns adjuvant-induced arthritis (AIA) model in C57BL/6 mice. The series is described as follows: Adjuvant-induced arthritis (AIA) model, micro-CT of calcaneus bone (cortical surface, bone mineral density). Type of series: in vivo. The source says:
Scientific reports, 7(1), 8870. […] Said mice were sacrificed on Day 45.
Each mouse was anesthetized (2.5% isoflurane, 1.0 L/min air) and the anesthetic gas was maintained during the scanning. The mouse was subjected to lay on one side on the carbon fiber half-tube bed while kept anesthetized in the micro-CT scanner (Skyscan 1076), and the right hindpaw was positioned on a cylindrical shape styrofoam holder. The mouse's paw was immobilized at the scanning midline of the scanner to eliminate any undesirable movement of the paw.
Settings for the micro-CT scanner (SkyScan-1076; Bruker micro CT, Belgium) were as follows: isotropic voxel size: 9 μm, tube voltage: 49 kV, current: 167 μA, Al filter: 0.5 mm, and 180° scan with 0.6° rotation step […] with frame averaging of 3. Subsequently, micro CT projections were back projection-reconstructed using the NRecon software (NReconServer64 bit, Bruker, MicroCT, Belgium) and volume-rendered and visualized in 3D with the CTVox software (Bruker, MicroCT, Belgium). The images of calcaneus bone were segmented and analyzed using the CTAn software (Bruker, MicroCT, Belgium).
GraphPad Prism 9.3.1 (GraphPad Software, USA) was used for statistical analyses and graphing. Data are presented as mean±standard deviation. The level of statistical significance was set at 5% (P<0.05) for all analyses. Data analysis of the indexes derived from the μCT images of calcaneus bone of mice was carried out, for example, One-way RM ANOVA (One-way Repeated Measures Analysis of Variance) with Tukey's post hoc test was used for data analysis of bone mineral density.
The observation time window of μCT scanning was set before AIA induction (Week 0), at the end of induction (Week 4), and after 1 or 2 weeks' treatment (i.e., Week 5 and Week 6). According to FIG. 1A and FIG. 1B, obviously, the surface integrity of the calcaneus bone was disturbed at Week 4 (the end of induction and prior to treatment), manifested as unevenness of the cortical bone (dashed line circle, Week 4 vs Week 0).

Series [2] in a line: Preliminary safety profile in AIA mice (body weight changes, observation). The conditions noted are these: for body weight changes: oral once daily, after 1- or 2-week treatment (Week 5 or Week 6), compared with Week 4 or vehicle group, P>0.05.
Method: This animal study was carried out according to the adjuvant-induced arthritis (AIA) model designed by Academia Sinica, Taipei, Taiwan. Specifically, arthritis induction was performed according to the method described in Gauldie, S. D., McQueen, D. S., Clarke, C. […] In short, this animal study comprised thirty C57BL/6 mice purchased from National Laboratory Animal Center, Taiwan, which were 8 weeks old with a body weight of about 20 to 25 grams. By using a 30-gauge needle mounted on a 100 μl Hamilton syringe, said mice were respectively injected with 5 μg Complete Freund's Adjuvant (CFA) (F5881, Sigma, USA) in the right ankle joint once a week for consecutive 4 times, wherein the first injection was carried out at week 0 (day 0), and said mice were anesthetized and maintained with 2% isoflurane during the injection. The AIA model can induce long-term inflammation and swelling in unilateral anterior ankle joints in C57BL/6 mice, thereby simulating the clinical long-term chronic pain of patients with rheumatoid arthritis.
After CFA induction, said mice were weekly weighted and scored with rheumatoid arthritis score estimation (data not shown) according to Hsieh, W. S., et al. (2017). […] The mice were assigned to 5 groups: (1) vehicle group, (2) P1 group (provided with 1 mg/kg/day peptide of SEQ ID NO: 1), (3) P3 group (provided with 3 mg/kg/day peptide of SEQ ID NO: 1), (4) P10 group (provided with 10 mg/kg/day peptide of SEQ ID NO: 1), and (5) T group (provided with 12.4 mg/kg/day tofacitinib). Said animal grouping was based on the rheumatoid arthritis scores by a random sampling mode. The drug administration from Week 4 (Day 28) to Week 6 (Day 42) was as follows: said mice received once-daily oral dosing (gavage) of 5 μL/g of body weight (bw) of a solution comprising: (1) the peptide of SEQ ID NO: 1 (1 mg/kg bw, 3 mg/kg bw or 10 mg/kg bw, dissolved in water) in P1, P3 and P10 group, respectively, (2) tofacitinib (12.4 mg/kg bw, dissolved with 0.5% carboxymethylcellulose aqueous solution) in T group, and (3) water in vehicle group. Said mice were sacrificed on Day 45. […]
The next series concerns SW982 cells. The series is described as follows: SW982 cell migration measurement (wound healing experiment). Type of series: cell-based. The conditions noted are these: 10^−7 to 10^−5 μM, 24 h. The source says:
It is known that fibroblast-like synoviocytes secrete inflammatory cytokines, chemokines, and matrix metalloproteinases (MMPs) and induce cell migration and invasion to damage joints and cartilage. We next examined the effect of the peptide of SEQ ID NO: 1 on SW982 cell migration through a conventional wound healing experiment. Specifically, a Culture-Insert 2 Well (ibidi) in which two cell culture reservoirs were separated by a 500 μm wall was placed on a cell culture plate surface. Both reservoirs were filled with cells suspension containing L15 culture medium and 4×10^4 SW982 cells to allow cell growth in the designated areas. After appropriate cell attachment of all SW982 cells, the Culture-Insert 2 Well was removed to create a cell-free gap of approximately 500 μm. The cell monolayer was washed with PBS buffer to remove detached cells and debris. The SW982 cells were incubated with the peptide of SEQ ID NO: 1 (10^−5, 10^−6, 10^−7 μM) in L15 culture medium or with L15 culture medium only (as control group) for 24 h in a carbon dioxide-free environment. By using direct microscopic visualization, a reference point at the bottom was created in each field, and the image of the remaining cell-free area in the identical field shot immediately after 24 h-treatment of the peptide of SEQ ID NO: 1 was measured to analyze cell migration and wound healing rates. […]

Another series concerns RAW264.7 cells. The series is described as follows: Bone resorption assay (RANKL-induced, CaP-coated plate pit area). Type of series: cell-based. The conditions noted are these: 100 μM with 100 ng/ml RANKL, 7 days, p<0.001 vs RANKL group. How it is done:
This test used RANKL (receptor activator of nuclear factor kappa-B ligand) as an inducer of osteoclastic differentiation to detect whether the peptide of SEQ ID NO: 1 could inhibit osteoclast resorptive function induced by RANKL in vitro, and comprised three groups: control group, RANKL group and treatment group.
First, RAW264.7 cells were seeded in a calcium phosphate (CaP)-coated 96-well with a density of 2×10^3 cells per well. RAW264.7 is a macrophage cell line, and RAW264.7 cells can differentiate into an osteoclast. The cells of all groups were cultivated for 7 days according to the manufacturer's instructions of Bone Resorption assay kit (Cosmo Bio). The differences between control group, RANKL group and treatment group were as follows: • (1) Control group: neither RANKL nor the peptide of SEQ ID NO: 1 was provided to RAW264.7 cells during a 7-day incubation period. • (2) RANKL group: RANKL in a concentration of 100 ng/ml was provided to RAW264.7 cells at Day 1 and incubated for 7 days. • (3) Treatment group: RANKL in a concentration of 100 ng/ml and the peptide of SEQ ID NO: 1 in a concentration of 100 μM were simultaneously provided to RAW264.7 cells at Day 1 and incubated for 7 days.
After the 7-day incubation period, all wells of all groups were washed with 0.2 ml to 0.5 ml of 5% sodium hypochlorite to remove the cells adhered to the surface. […]

A further series deals with SW982 synoviocytes. The series is described as follows: Cell viability test (CCK-8) of SW982 synoviocytes. Type of series: cell-based. How it is done:
Owing to the restricted lifespan of primary rheumatoid arthritis fibroblast-like synoviocytes (RA-FLS), the fibroblast-like synoviocytes (FLS) cell line SW982 synoviocytes (hereinafter referred to as SW982 cells) are well accepted as a useful in vitro model for studying the pathogenesis of RA. In short, SW982 cells were seeded in a 96-well plate at a cell density of 6,000 cells per well. After the cells were treated in the following groups, the effect of each treatment group on the viability of SW982 cells was tested by means of the cell proliferation detection kit (cell counting kit-8, CCK8; Elabscience, Catalog No: E-CK-A361) according to the manufacturer's manual. Said treatment groups were as follows: (1) Different concentrations of the peptide of SEQ ID NO: 1: SW982 cells were treated with the L15 culture medium containing 10^−6, 10^−7, 10^−8, 10^−9 μM of the peptide of SEQ ID NO: 1 for 24 hours; (2) IL-1β stimulation group: SW982 cells were stimulated with the culture medium containing 1 ng/mL IL-1β for 24 hours to simulate the inflammatory synoviocytes of rheumatoid arthritis; (3) Co-treatment group: SW982 cells were treated with culture medium containing 10^−9 μM of the peptide of SEQ ID NO: 1 and 1 ng/mL of IL-1β for 72 hours. The SW982 cells in said treatment groups were all cultured in a carbon dioxide-free environment. In addition, SW982 cells were simply cultured in L15 medium for 24 hours, as the control group. This test uses 2-(2-methoxy-4-nitrophenyl)-3-(4-nitrophenyl)-5-(2,4-disulfophenyl)-2H-tetrazolium sodium salt (WST-8) from CCK-8 kit to react with the dehydrogenase in viable cells, so that the color of all treatment groups containing WST-8 turned from pink to orange. By detecting the absorbance value at 450 nm, the activity of dehydrogenase was determined to calculate the number of viable cells.

In the case of `C[C@@H]1CCN(C(=O)CC#N)C[C@@H]1N(C)c1ncnc2[nH]ccc12` [Tofacitinib, reference compound], in series [1] (12.4 mg/kg/day oral, 1- or 2-week treatment, Week 5/6 vs Week 4, P>0.05), the “bone mineral density (BMD) of calcaneus bone” value is recorded as “neither 1- nor 2-week treatment of Tofacitinib was able to revert the BMD decrement”. For the same compound, the “bone contour / cortical surface of calcaneus bone (micro-CT)” value in series [1] (12.4 mg/kg/day oral, Week 6 vs Week 4) is recorded as “did not reduce the extent of surface roughness or the distortion of the bone contour”. In addition, the body weight changes result in series [2] was “no significant difference in body weight changes”.
As for `CC(C)[C@H](NC(=O)[C@H](C)NC(=O)[C@@H](NC(=O)[C@H](CCC(=O)O)NC(=O)[C@@H]1CCC(=O)N1)[C@@H](C)O)C(=O)N[C@@H](CO)C(=O)N[C@@H](CO)C(=O)N[C@@H](Cc1c[nH]cn1)C(=O)N[C@@H](CCC(=O)O)C(=O)N[C@@H](CCC(N)=O)C(=O)N[C@@H](CC(=O)O)C(=O)O` [peptide of SEQ ID NO: 1, Glp Glu Thr Ala Val Ser Ser His Glu Gln Asp] ([pGlu]ETAVSSHEQD-OH), in the series on SW982 cells, the “lateral migration of SW982 cells” value is on record as “significantly reduced the lateral migration of SW982 cells”. Also, the “bone contour / cortical surface of calcaneus bone (micro-CT)” value in series [1] (1 mg/kg oral once daily, Week 4 to Week 6) was “no benefits in restoring the bone contour”; in series [1] (3 mg/kg oral once daily, Week 4 to Week 6), “no benefits in restoring the bone contour”; in series [1] (10 mg/kg oral once daily for 2 weeks, Week 6 vs Week 4), “much smoother cortical surfaces with fewer spiky projections of calcaneus bone”. For the same compound, the “bone mineral density (BMD) of calcaneus bone” value is “no significant changes in BMD” in series [1] (1 mg/kg oral, 1- or 2-week treatment, Week 5/6 vs Week 4, P>0.05); “no significant changes in BMD” in series [1] (3 mg/kg oral, 1- or 2-week treatment, Week 5/6 vs Week 4, P>0.05); “no increase in BMD” in series [1] (10 mg/kg oral, after 1-week treatment); “significant increases in BMD” in series [1] (10 mg/kg oral, after 2 week treatment, Week 6 vs Week 4, P<0.05). In addition, the “observation of treated mice (signs of toxicity)” value in series [2] (oral once daily Week 4 to Week 6) is “no signs of irritability, loss of vigor, or any skin or hair changes”. In addition, the body weight changes result in series [2] is “no significant difference in body weight changes”. In the series with RAW264.7 cells, the “pit area (calcium phosphate resorption) relative to RANKL group (one-fold)” value is reported as “about 0.5 fold”. Further, the “IL-1β-induced proliferation of SW982 cells” value with SW982 synoviocytes (10^−9 μM with 1 ng/mL IL-1β, 72 hours) is “significantly suppress the IL-1β-induced proliferation of SW982 cells”. Also, the “proliferation of SW982 cells” value in the series on SW982 synoviocytes (10^−9 to 10^−6 μM, 24 hours) is listed as “effectively inhibit the proliferation of SW982 cells”.
In the case of “IL-1β: cytokine used to stimulate SW982 cells to simulate the inflammatory synoviocytes of rheumatoid arthritis [reference compound]”, in the series with SW982 synoviocytes (1 ng/mL, 24 h), the “proliferation of SW982 cells” value is reported as “dramatically enhanced the proliferation of SW982 cells”.
